Assays:
[1] = biological target: T1, GCN2 (Homo sapiens, UniProt Q9P2K8); assay: In vitro phosphorylation assay: GCN2 activation (auto-phosphorylation); format: biochemical; details: with IN
T1 construct: expressed as a truncated version (192-1024) in fusion after a glutathione S-transferase tag; purchased SignalChem E12-11G
T1 sequence (Q9P2K8 192-1024): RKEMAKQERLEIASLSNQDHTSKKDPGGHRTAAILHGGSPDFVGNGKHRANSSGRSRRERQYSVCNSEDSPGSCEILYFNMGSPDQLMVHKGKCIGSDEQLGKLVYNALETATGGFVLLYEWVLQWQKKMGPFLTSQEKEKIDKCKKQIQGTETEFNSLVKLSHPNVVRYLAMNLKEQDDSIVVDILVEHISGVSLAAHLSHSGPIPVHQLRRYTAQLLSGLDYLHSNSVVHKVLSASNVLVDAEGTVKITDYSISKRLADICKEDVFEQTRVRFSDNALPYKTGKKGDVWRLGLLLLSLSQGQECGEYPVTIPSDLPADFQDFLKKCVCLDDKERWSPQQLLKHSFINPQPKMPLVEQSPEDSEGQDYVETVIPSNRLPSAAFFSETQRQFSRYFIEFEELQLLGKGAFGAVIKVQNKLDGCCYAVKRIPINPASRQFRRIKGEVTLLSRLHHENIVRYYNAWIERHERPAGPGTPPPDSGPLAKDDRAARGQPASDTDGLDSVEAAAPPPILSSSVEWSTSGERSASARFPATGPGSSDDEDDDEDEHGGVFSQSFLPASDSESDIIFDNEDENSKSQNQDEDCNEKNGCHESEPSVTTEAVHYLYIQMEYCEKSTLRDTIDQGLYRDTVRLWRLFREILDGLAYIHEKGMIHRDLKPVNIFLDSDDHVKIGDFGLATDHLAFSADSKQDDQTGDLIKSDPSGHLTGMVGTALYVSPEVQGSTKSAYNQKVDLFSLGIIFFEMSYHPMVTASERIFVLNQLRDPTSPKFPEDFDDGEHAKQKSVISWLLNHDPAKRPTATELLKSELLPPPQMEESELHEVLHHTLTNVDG
Source text: Enzymes. GCN2 was purchased from SignalChem (EIF2AK4, cat. #E12-11G). This human recombinant protein was expressed as a truncated version (192-1024) in fusion after a glutathione S-transferase tag (approximate molecular weight of 132 kDa). Recombinant full-length IN was expressed in E. coli BL21 pLys (IPTG induction) and purified on a nickel chelating column, as described. Integrity and purity were checked by direct Coomassie coloration of elution fractions on SDS-PAGE before dialysis to remove imidazole. Protein concentration was determined using a NanoDrop 2000 with the following parameters: molecular weight: 34 kDa, extinction coefficient ϵ = 50,460 mol^−1cm^−1L.
In vitro phosphorylation assay. Phosphorylation of IN (700 nM) was carried out using 25 nM of GCN2 in a reaction buffer containing 10 mM Tris-HCl pH 7.5, 50 mM NaCl, 15 mM MgCl2, 7.5 mM MnCl2, 10 mM DTT, 0.005% Nonidet P-40, 100 µM ATP, 50 µCi/µL of [γ-^32P]-ATP (3000 Ci/mmole, Perkin Elmer). Reactions (20 µL) were stopped after a 60 min incubation at 30 °C by adding 10 µL of loading buffer [80 mM Tris-HCl pH 6.8, 100 mM DTT, 10% glycerol, 1% sodium dodecyl sulfate (SDS) and 0.05% bromophenol blue]. Samples were then loaded onto a 10% denaturating SDS-PAGE. After protein separation (120 V for 120 min) the gel was stained using Coomassie Brilliant Blue R-250. Autoradiography was performed using an imaging plate (Fujifilm, Tokyo, Japan) and images were obtained with a FLA-5000 Imaging System (Fujifilm).

[2] = biological target: T2, IN–GCN2 interaction (UniProt P04585+Q9P2K8); assay: IN–GCN2 interaction assay (AlphaLISA); format: binding, HIV-1 IN / human GCN2; details: pilot screen, single dose of 100 µM; read-out: inhibition of the IN–GCN2 interaction signal
T2 construct: expressed as a truncated version (192-1024) in fusion after a glutathione S-transferase tag; Recombinant full-length IN was expressed in E. coli BL21 pLys; purchased SignalChem (GCN2); IN made in house in E. coli BL21 pLys E12-11G; host or cells: E. coli BL21 pLys (IN)
Source text: We developed an in vitro plate-based assay to monitor the interaction between GCN2 and IN using the AlphaLISA technology (Figure 1). Taking advantage of the tags present on each recombinant protein (6xHis for IN prepared “in-house”, and GST for GCN2 commercially available), we used specific beads that fluoresce only when they are in close proximity (<200 nm). The signal obtained (light count) is directly proportional to the binding of IN to GCN2 (homogenous solution assay at steady state).
IN–GCN2 interaction assay. Protein–protein interactions were monitored using the AlphaLISA technology (Perkin Elmer) taking advantage of the GST and 6xHis tags of GCN2 and IN, respectively. Accordingly, AlphaScreen GSH Donor beads and AlphaLISA Nickel Acceptor beads were used (Perkin Elmer). Reactions were carried out at room temperature by incubating GCN2 with drugs or DMSO for 5 min before addition of AlphaLISA Nickel Acceptor beads. After 5 min, IN was added to the reaction mixture and incubated for 20 min before adding the AlphaScreen GSH Donor beads. This interaction assay was performed in conditions similar to the in vitro phosphorylation assay, already described, using 25 nM GCN2 and 700 nM (except indicated otherwise) in a reaction buffer containing 50 mM Tris-HCl pH 7.5, 40 mM NaCl, 1 mM dithiothreitol (DTT), 0.05% Tween 20, 0.1% bovine serum albumin (BSA), 10 µg/mL of each donor and acceptor beads. Alpha signal was measured using an EnSight plate reader (Perkin Elmer) 120 min after the addition of the latest component of the reaction (unless indicated otherwise).

SMILES: O=C1c2c(O)ccc(O)c2C(=O)c2c(NCCNCCO)ccc(NCCNCCO)c21 [NSC279836, Mitoxantrone]
- remaining activity at 100 µM ([1]; 100 µM, read-out: GCN2 auto-phosphorylation signal, % of the DMSO control): 171%
- effect on GCN2 auto-phosphorylation in dose-response ([1]; serial dilutions from 300 µM to 137 nM): reproducible increase
- inhibition at 100 µM [2]: 99.4%
